Tests used:
[1] = tested on: HCT-116; test: cells; settings: Homo sapiens, HCT-116, 48 h
Description: Antiproliferative activity against human HCT116 cells assessed as reduction in cell viability after 48 hrs by MTT assay

[2] = tested on: WI-38; test: cells; settings: Homo sapiens, WI-38, 48 h
Description: Cytotoxicity against human WI-38 cells assessed as reduction in cell viability after 48 hrs by MTT assay

[3] = tested on: HeLa; test: Antiproliferative activity against human HeLa cells assessed as reduction in cell viability after 48 hrs by MTT assay; format: functional, cell-based
[4] = tested on: MCF7; test: Antiproliferative activity against human MCF7 cells assessed as reduction in cell viability after 48 hrs by MTT assay; format: functional, cell-based; settings: MCF7, 48 h
[5] = molecular target: Heat shock protein HSP90 (Homo sapiens, UniProt P07900+P08238); test: Inhibition of HSP90 ATPase activity (unknown origin); format: protein assay
[6] = tested on: MCF7; test: Induction of apoptosis in human MCF7 cells assessed as necrotic cells at 2 uM after 24 hrs by Annexin V-FITC/propidium iodide staining based flow cytometric analysis (reference value: 0.43%); format: functional
[7] = tested on: MCF7; test: Induction of cell cycle arrest in human MCF7 cells assessed as cell accumulation at Pre-G1 phase at 2 uM after 24 hrs by PI-staining based flow cytometry (reference value: 1.64%); format: functional
[8] = tested on: MCF7; test: Induction of cell cycle arrest in human MCF7 cells assessed as cell accumulation at G0/G1 phase at 2 uM after 24 hrs by PI-staining based flow cytometry (reference value: 53.72%); format: functional
[9] = tested on: MCF7; test: Induction of cell cycle arrest in human MCF7 cells assessed as cell accumulation at S phase at 2 uM after 24 hrs by PI-staining based flow cytometry (reference value: 35.44%); format: functional
[10] = tested on: MCF7; test: Induction of apoptosis in human MCF7 cells assessed as early apoptotic cells at 2 uM after 24 hrs by Annexin V-FITC/propidium iodide staining based flow cytometric analysis (reference value: 0.82%); format: functional
[11] = tested on: MCF7; test: Induction of apoptosis in human MCF7 cells assessed as late apoptotic cells at 2 uM after 24 hrs by Annexin V-FITC/propidium iodide staining based flow cytometric analysis (reference value: 0.39%); format: functional
[12] = tested on: MCF7; test: Induction of cell cycle arrest in human MCF7 cells assessed as cell accumulation at G2/M phase at 2 uM after 24 hrs by PI-staining based flow cytometry (reference value: 10.84%); format: functional
[13] = tested on: MCF7; test: Induction of cell cycle arrest in human MCF7 cells assessed as debris content at 2 uM after 24 hrs by PI-staining based flow cytometry (reference value: 2.09%); format: functional
[14] = tested on: MCF7; test: Induction of cell cycle arrest in human MCF7 cells assessed as cell aggregates at 2 uM after 24 hrs by PI-staining based flow cytometry (reference value: 2.28%); format: functional

SMILES	IC50 [1] [µM]	IC50 [2] [µM]	IC50 [3] [µM]	IC50 [4] [µM]	also measured
O=c1c2ccccc2nc(SCCCCl)n1-c1ccccc1	23.2	36.7	16.7	12.6	–
CCOc1ccccc1N1CCN(C(=S)SCCCSc2nc3ccccc3c(=O)n2-c2ccccc2)CC1	18.1	33.3	20.6	9.48	IC50 [5]: 3.41 µM
O=c1c2ccccc2nc(SCCCSC(=S)N2CCN(C3CCCCC3)CC2)n1-c1ccccc1	73.8	> 100	64.5	45.9	–
O=c1c2ccccc2nc(SCCCSC(=S)N2CCCCC2)n1-c1ccccc1	63.4	> 100	50.3	38.5	–
CC(C)(C)OC(=O)N1CCN(C(=O)CSc2nc3ccccc3c(=O)n2-c2ccccc2)CC1	48.3	62.6	34.5	25.9	–
O=C(CSc1nc2ccccc2c(=O)n1-c1ccccc1)N1CCN(C2CCCCC2)CC1	60.9	78.4	53.6	35.9	–
O=C(CSc1nc2ccccc2c(=O)n1-c1ccccc1)N1CCOCC1	19.8	16	18.2	11.7	IC50 [5]: 3.21 µM
O=C(CSc1nc2ccccc2c(=O)n1-c1ccccc1)N1CCN(c2ncccn2)CC1	78.7	94.5	76.9	47.5	–
O=C(CSc1nc2ccccc2c(=O)n1-c1ccccc1)N1CCCCC1	25.3	65	22.5	13.8	–
CC(=O)N1CCN(C(=S)SCCCSc2nc3ccccc3c(=O)n2-c2ccccc2)CC1	37	> 100	54.9	22.4	–
C=CCN1CCN(C(=O)CSc2nc3ccccc3c(=O)n2-c2ccccc2)CC1	15.7	12.2	13.4	8.56	IC50 [5]: 1.58 µM; Activity [6]: 2.31%; Activity [7]: 22.42%; Activity [8]: 31.59%; Activity [9]: 29.52%; Activity [10]: 4.94%; Activity [11]: 15.17%; Activity [12]: 38.89%; Activity [13]: 2.63%; Activity [14]: 2.21%
CC(=O)N1CCN(C(=O)CSc2nc3ccccc3c(=O)n2-c2ccccc2)CC1	10.3	16	12	7.35	IC50 [5]: 14.36 µM
C=CCN1CCN(C(=S)SCCCSc2nc3ccccc3c(=O)n2-c2ccccc2)CC1	32.1	82.5	28.7	17.8	–
O=c1c2ccccc2nc(SCCCSC(=S)N2CCN(c3ncccn3)CC2)n1-c1ccccc1	79.6	> 100	74.4	49.3	–
CCN1CCN(C(=S)SCCCSc2nc3ccccc3c(=O)n2-c2ccccc2)CC1	88	> 100	79.6	64.3	–
CN1CCN(C(=S)SCCCSc2nc3ccccc3c(=O)n2-c2ccccc2)CC1	32.8	70.5	33.3	19.3	–
O=c1c2ccccc2nc(SCCCSC(=S)N2CCN(c3ccccc3)CC2)n1-c1ccccc1	27.6	29.8	26.1	15.5	–
CCN1CCN(C(=O)CSc2nc3ccccc3c(=O)n2-c2ccccc2)CC1	44.3	82	37.5	23.9	–
